Reference: patent US5942535A, “[a]-Annelated pyrrole derivatives and pharmaceutical use thereof” (Merckle GmbH, priority 1994, dated 1999)

Columns and labels:
5-lipoxygenase (LO) = biological target: T1, 5-lipoxygenase (LO) (Bos taurus, UniProt F1MQ78); experiment: Inhibition of the enzyme 5-lipoxygenase (LO); format: biochemical; settings: first figure of cell 'LO/CO'; decimal comma; concentration unit inferred; read-out: 7) IC50 LO
T1 construct: endogenous in cells
T1 sequence (F1MQ78 1-674): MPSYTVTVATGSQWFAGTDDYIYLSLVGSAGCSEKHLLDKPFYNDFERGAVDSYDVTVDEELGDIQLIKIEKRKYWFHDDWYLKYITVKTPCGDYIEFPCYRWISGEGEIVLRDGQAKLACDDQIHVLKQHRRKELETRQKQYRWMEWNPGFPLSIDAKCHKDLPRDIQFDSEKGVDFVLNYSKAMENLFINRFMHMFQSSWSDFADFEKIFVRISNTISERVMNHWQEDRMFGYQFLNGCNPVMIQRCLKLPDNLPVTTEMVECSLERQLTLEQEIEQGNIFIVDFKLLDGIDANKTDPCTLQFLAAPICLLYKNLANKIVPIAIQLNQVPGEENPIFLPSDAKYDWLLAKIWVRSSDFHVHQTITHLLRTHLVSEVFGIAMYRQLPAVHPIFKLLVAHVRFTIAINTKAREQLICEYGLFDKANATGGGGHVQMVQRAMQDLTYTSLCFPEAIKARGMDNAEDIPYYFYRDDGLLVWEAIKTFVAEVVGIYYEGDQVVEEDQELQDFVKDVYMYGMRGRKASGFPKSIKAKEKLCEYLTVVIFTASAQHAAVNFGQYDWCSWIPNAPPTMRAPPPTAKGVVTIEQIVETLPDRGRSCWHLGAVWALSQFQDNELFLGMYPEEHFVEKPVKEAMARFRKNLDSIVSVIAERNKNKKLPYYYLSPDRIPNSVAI
From the text: (§1) 7) IC50 /LO/CO: Inhibition of the enzyme cyclooxygenase (CO) and 5-lipoxygenase (LO), Dannhardt et al., J. Pharm. Pharmacol. 1992, 44:419-424.

cyclooxygenase (CO) = biological target: T2, cyclooxygenase (CO) (Bos taurus, UniProt O62664); experiment: Inhibition of the enzyme cyclooxygenase (CO); format: biochemical; settings: second figure of cell 'LO/CO'; decimal comma; concentration unit inferred; read-out: 7) IC50 CO
T2 construct: endogenous in cells
T2 sequence (O62664 25-600): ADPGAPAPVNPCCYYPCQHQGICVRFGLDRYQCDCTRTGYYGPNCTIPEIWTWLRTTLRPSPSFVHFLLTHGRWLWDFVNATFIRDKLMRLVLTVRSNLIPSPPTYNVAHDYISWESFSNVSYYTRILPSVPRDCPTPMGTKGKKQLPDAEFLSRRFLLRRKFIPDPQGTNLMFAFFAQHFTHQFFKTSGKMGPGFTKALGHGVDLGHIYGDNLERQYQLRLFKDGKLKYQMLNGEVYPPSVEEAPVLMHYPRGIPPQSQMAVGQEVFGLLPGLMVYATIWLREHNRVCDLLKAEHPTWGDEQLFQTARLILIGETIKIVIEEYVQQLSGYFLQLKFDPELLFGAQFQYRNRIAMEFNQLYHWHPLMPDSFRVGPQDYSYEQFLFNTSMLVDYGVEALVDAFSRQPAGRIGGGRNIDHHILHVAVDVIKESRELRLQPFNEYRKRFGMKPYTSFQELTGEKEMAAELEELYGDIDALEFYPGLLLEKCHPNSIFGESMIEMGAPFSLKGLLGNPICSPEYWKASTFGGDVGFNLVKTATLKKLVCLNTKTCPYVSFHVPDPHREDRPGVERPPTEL
From the text: as §1

Row | degraded at 24 h (physchem; aqueous solution) | half-life (physchem; chloroform) | IC50 (5-lipoxygenase (LO)) | IC50 (cyclooxygenase (CO)) | Structure (SMILES)
1 | ~2% | ~1 h |  |  | CC1(C)Cc2c(-c3ccccc3)c(-c3ccc(Cl)cc3)c(CC(=O)O)n2C1 [6-(4-chlorophenyl)-2,2-dimethyl-7-phenyl-2,3-dihydro-1H-pyrrolizin-5-yl acetic acid]
2 |  |  | 230 nM | 150 nM | CC1(C)Cc2c(-c3ccccc3)c(-c3ccc(Cl)cc3)c(CC(=O)NS(C)(=O)=O)n2C1 [Example 4]
